From US10576101B2, “Roneparstat combined therapy of multiple myeloma” (Leadiant Biosciences SA, priority 2015, dated 2020)
Read-outs that look alike come from different tables or passages of the source.

How the values were obtained:
CAG HPSE high cells [1] = assay type: in vivo, Mouse, CB. 17/Icr SCID
CAG HPSE high cells [2] = assay type: in vivo, Mouse, CB. 17/Icr SCID; remark: listed apart in the source
multiple myeloma = conditions: high-dose 200 mg/m^2 followed by ASCT after VAD induction, patients younger than 65 years; cited from earlier work
CAG HPSE high cells [3] = assay: Experimental metastasis model of myeloma, roneparstat in vivo combination with bortezomib; set-up: species or system Mouse, CB. 17/Icr SCID; conditions: roneparstat 120 mg/kg/day s.c., bortezomib 0.5 mg/kg/twice a week i.p., two weeks, serum Day 21
diabetic nephropathy = conditions: mouse models of diabetic nephropathy; cited from earlier work
HPSE-high cells = assay: Cell viability by MTT assay, roneparstat with carfilzomib; assay type: cell-based, human; conditions: roneparstat 6.75 μM or carfilzomib 15 nM alone
Description: CAG human myeloma cell line was established at the Myeloma Institute for Research and Therapy (Little Rock, Ark.). CAG cells with modified levels of heparanase expression have been extensively characterized and include (a) heparanase-low (HPSE-low) cells prepared by transfection with empty vector; and (b) heparanase-high (HPSE-high) cells prepared by transfection with vector containing the cDNA for human heparanase. Although HPSE-high cells express a 4-fold higher level of heparanase than do the HPSE-low cells, the elevated levels of enzyme activity present in HPSE-high cells are in the same range as that present in the bone marrow of many myeloma patients (Kelly T. et al, Cancer Res 2003; 63:8749-56). […] The preparation of the CAG-HPSE high cells is described in Yang Y, et al, The Journal Of Biological Chemistry, Vol. 282, No. 18, pp. 13326-13333, May 4, 2007 (see in particular page 13327, left column, the paragraph beginning with “For transfections . . . ”).
HPSE-high cells were seeded in serum free media overnight and then treated with 6.75 μM roneparstat (Rone) for 6 hours, washed and then treated with carfilzomib (CFZ) (15 nM) for 14 hours and viability was assessed by MTT assay. The MTT assay is a colorimetric assay for assessing cell viability, which takes its name from tetrazolium dye MTT (3-(4,5-dimethylthiazol-2-yl)-2,5-diphenyltetrazolium bromide). […]

[4] = tested on: models of multiple myeloma, hematologic, and solid tumors; conditions: cited from earlier work
[5] = tested on: solid and hematologic tumor cells; conditions: cited from earlier work
proteasome = conditions: in animals; cited from earlier work
[6] = tested on: nonclinical tumor models, including multiple myeloma; conditions: cited from earlier work
[7] = tested on: a variety of cancer cell types; conditions: cited from earlier work
[8] = roneparstat 60 mg/kg/day s.c., melphalan 1 mg/kg/week i.p., two weeks, serum Day 21

## N[C@@H](Cc1ccc(N(CCCl)CCCl)cc1)C(=O)O [Melphalan]
CAG HPSE high cells [1]; [8]
  % of animals with kappa levels (above detection limit): 70%
  animals with detectable levels of human immunoglobulin light chain (detectable tumor burden): 7/10
CAG HPSE high cells [2]; after initial melphalan treatment, PBS for the next two weeks
  animals with detectable tumor burden: 7/11
Multiple myeloma
  survival: 5 years

## Roneparstat
CAG HPSE high cells [3]
  % of animals with kappa levels (above detection limit): 70%
  animals with detectable levels of human immunoglobulin light chain (detectable tumor burden): 6/8
CAG HPSE high cells [1]; mouse, in vivo
  % of animals with kappa levels (above detection limit): 89%
  animals with detectable levels of human immunoglobulin light chain (detectable tumor burden): 8/9
CAG HPSE high cells [2]; mouse, in vivo
  animals with detectable tumor burden: 3/10
Diabetic nephropathy
  extent of albuminuria and renal damage: markedly decreased
HPSE-high cells
  decrease of viability (MTT), agent administered alone: neither roneparstat or carfilzomib provided significant results

## CC(C)C[C@H](NC(=O)[C@H](CCc1ccccc1)NC(=O)CN1CCOCC1)C(=O)N[C@@H](Cc1ccccc1)C(=O)N[C@@H](CC(C)C)C(=O)[C@@]1(C)CO1 [Carfilzomib, (2S)—N—((S)-1-((S)-4-methyl-1-((R)-2-methyloxiran2-yl)-1-oxopentan-2-ylcarbamoyl)-2-phenylethyl)-2-((S)-2-(2-morpholinoacetamido)4-phenylbutanamido)-4-methylpentanamide]
[4]
  tumor growth: delayed tumor growth
HPSE-high cells
  decrease of viability (MTT), agent administered alone: neither roneparstat or carfilzomib provided significant results
[5]
  antiproliferative and proapoptotic activities in vitro: had antiproliferative and proapoptotic activities
proteasome
  proteasome activity in blood and tissue: inhibited proteasome activity

## CC(C)C[C@H](NC(=O)[C@H](Cc1ccccc1)NC(=O)c1cnccn1)B(O)O [Bortezomib]
CAG HPSE high cells [3]
  % of animals with kappa levels (above detection limit): 75%
  animals with detectable levels of human immunoglobulin light chain (detectable tumor burden): 8/10
[6]
  tumor growth in vivo: causes a delay in tumor growth
[7]
  cytotoxicity in vitro: cytotoxic
